Read-outs that look alike come from different tables or passages of the source.

Common to all, as to type: in vivo
Test [1] relates to larvae of the fall army worm (Spodoptera frugiperda). Kind of test: Spodoptera frugiperda - test (sprayed cabbage leaves). The note with it: mortality. Here is the method: (§1) Solvent: 7 parts by weight of dimethylformamide
(§2) Emulsifier: 2 parts by weight of alkylaryl polyglycolether
(§3) To produce a suitable preparation of active compound, 1 part by weight of active compound is mixed with the stated amount of solvent and emulsifier, and the concentrate is diluted with emulsifier-containing water to the desired concentration.
Cabbage leaves (Brassica oleracea) are treated by being sprayed into the preparation of the active compound of the desired concentration and are infested with larvae of the fall army worm (Spodoptera frugiperda) as long as the leaves are still moist.
After the specified period of time, the mortality in % is determined. 100% means that all the caterpillars have been killed; 0% means that none of the caterpillars have been killed.

Test [2] concerns rice blast (Pyricularia oryzae). The note with it: 20 ppm, inoculated 1 day after spraying, evaluated 5 days after inoculation.
Test [3] relates to Blumeria graminis f. sp. hordei. Kind of test: Blumeria test (barley)/SAR 5d. The following applies: 1000 ppm, evaluated 7 days after inoculation.
The test system of test [4] is larvae of the mustard beetle (Phaedon cochleariae). Kind of test: Phaedon cochleariae - test (sprayed cabbage leaves). The following applies: for Efficacy in % after 3d: Table C-1, mortality; for Efficacy in % after 4d: Table C-2, mortality; for Efficacy in % after 6d: Table C-3, mortality. Here is the method:
as §1, §2, §3
Cabbage leaves (Brassica oleracea) are treated by being sprayed with the preparation of the active compound at the desired concentration and are infested with larvae of the mustard beetle (Phaedon cochleariae) as long as the leaves are still moist.
After the specified period of time, the mortality in % is determined. 100% means that all the beetle larvae have been killed; 0% means that none of the beetle larvae have been killed.

Test [5] concerns rice blast (Pyricularia oryzae). The note with it: 100 ppm, inoculated 5 days after spraying, evaluated 7 days after inoculation.
The test system of test [6] is larvae of the Brown plant hopper (Nilaparvata lugens). As to the kind of experiment: Nilaparvata lugens - test (sprayed rice plants). The following applies: mortality. As to the method:
as §1, §2, §3
Rice plants (Oryza sativa) are treated by being sprayed with the preparation of the active compound at the desired concentration and are infested with larvae of the Brown plant hopper (Nilaparvata lugens) as long as the leaves are still moist.
After the specified period of time, the mortality in % is determined. 100% means that all the hopper larvae have been killed; 0% means that none of the hopper larvae have been killed.

Take `C/C(=N\C#N)N(C)Cc1ccc(Cl)nc1` [Acetamiprid, acetamiprid]: in test [1] (0.16 ppm), the “Efficacy in % after 6d” value is 15%.
`CNC(=O)c1cc(Cl)cc(C)c1NC(=O)c1cc(Br)nn1-c1ncccc1Cl` [Chlorantraniliprole, chlorantraniliprole]: the Efficacy in % in test [2] amounted to 0%; in test [3] (Table A-1, 1st leaf), 11%; in test [3] (Table A-2, printed 1st leaf) it was 0%; in test [5], 0%. The “Efficacy in % after 6d” value in test [1] (0.032 ppm) and in test [4] (0.8 ppm) was 15% throughout. Besides, the “Efficacy in % after 3d” value in test [4] (0.16 ppm) and in test [6] (4 ppm) was 0% in each case. In addition, the results for the “Efficacy in % after 4d” value in test [4] (0.8 ppm) and in test [4] (4 ppm) were 45% and 70%, respectively.
As for `CN/C(=N\[N+](=O)[O-])NCc1cnc(Cl)s1` [Clothianidin, clothianidin], the “Efficacy in % after 4d” value in test [4] (20 ppm) is 70%. In addition, the “Efficacy in % after 6d” value in test [4] (4 ppm) is 90%. The “Efficacy in % after 3d” value in test [6] (4 ppm) is reported as 90%.
Consider `O=[N+]([O-])NC1=NCCN1Cc1ccc(Cl)nc1` [Imidacloprid, imidacloprid], for which the Efficacy in % in test [2] and in test [5] was 0% throughout. In addition, in test [4] (4 ppm), the “Efficacy in % after 3d” value is recorded as 0%.
As for `N#Cc1ccccc1NC(=O)c1snc(Cl)c1Cl` [Isotianil, 3,4-dichloro-N-(2-cyanophenyl)-5-isothiazolecarboxamide], the Efficacy in % in test [2] is reported as 35%; in test [3] (Table A-1, 1st leaf), 44%; in test [3] (Table A-2, printed 1st leaf), 44%; in test [5], 43%. Also, the “Efficacy in % after 6d” value in test [1] (200 ppm) and in test [4] (200 ppm) was 0% in each case. Further, the “Efficacy in % after 3d” value in test [4] (200 ppm) and in test [6] (200 ppm) was 0% in each case. Also, the “Efficacy in % after 4d” value in test [4] (200 ppm) was determined as 15%.
As for `N#C/N=C1\SCCN1Cc1ccc(Cl)nc1` [Thiacloprid, thiacloprid], the “Efficacy in % after 4d” value in test [4] (4 ppm) was found to be 45%.

(Values after patent US8883180B2 (priority 2007, dated 2014).)
